Each structure is given as a SMILES string.

The target of this test is tau (Homo sapiens, UniProt P10636). Put plainly: MCE Phenols Library screening, tau biosensor cell seeding assay (AvZ). The test is classed as cell-based. The note with it: for Z repl 1 / Z Repl 2: Z score; for Z repl 1 / raw data 1: replicate 1; for Z Repl 2 / raw data 2: replicate 2; for AvZ (average z score of seeding, SDs from the mean level of seeding): 10 μM phenol in cell cultures, AD brain homogenate preincubated 16 hours, two biological replicates, positive = catalyzes seeding, negative = inhibits.

Setting [1] is: average Z score of the two replicates, MCE Phenols Library screen.
[2] abbreviates: average puncta of the two replicates.
Where [3] appears, read: average Z score of two replicates, Phenols Library screen.
Setting [4] is: average Z score of the two replicates, tau seeding.

Sequence of tau (P10636 623-695 limits assumed): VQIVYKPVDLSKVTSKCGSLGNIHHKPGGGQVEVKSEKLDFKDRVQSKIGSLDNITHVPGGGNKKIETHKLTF

As to `O=c1c(O)c(-c2ccc(O[C@@H]3O[C@H](CO)[C@@H](O)[C@H](O)[C@H]3O)c(O)c2)oc2cc(O)cc(O)c12` [Spiraeoside], the “Z repl 1” value is -1.012 and the “Z Repl 2” value was -0.12. Besides, the “av Z” value under setting [1] was -0.566. In addition, the av puncta under setting [2] is listed as 12842. Further, where the note is “puncta”, the “raw data 1” value is 14202.4 and the “raw data 2” value amounted to 11481.5.
As for `COc1cc(O)c2c(=O)c3c(O[C@@H]4O[C@H](CO)[C@@H](O)[C@H](O)[C@H]4O)ccc(O)c3oc2c1` [Swertianolin], the “Z repl 1” value was -0.114 and the “Z Repl 2” value worked out at 0.052. Moreover, under setting [3], the “av Z” value is -0.031. Under “average of raw data 1 and 2”, this molecule came in with an av puncta of 19147.5. Besides, under “puncta”, the “raw data 1” value worked out at 24974.7 and the “raw data 2” value is 13320.3.
As for `COc1cc(C=O)cc(OC)c1O` [Syringaldehyde], the “AvZ (average z score of seeding, SDs from the mean level of seeding)” value (shortened to “AvZ”) is reported as -0.318; the “Z repl 1” value came out at 0.142; the “Z Repl 2” value is reported as -0.778. The av puncta under setting [2] came out at 16255.1. Further, where the note is “raw puncta”, the “raw data 1” value is 28055.2 and the “raw data 2” value was 4454.92.
As to `COc1cc(C(=O)O)cc(OC)c1O` [Syringic acid], the “AvZ” value worked out at 0.082; the “Z repl 1” value came to 0.138; the “Z Repl 2” value is listed as 0.027. In addition, the av puncta (average of raw data 1 and 2) was determined as 20525.8. Further, under “puncta”, the “raw data 1” value was found to be 28000.6 and the “raw data 2” value was determined as 13051.1.
As to `COc1ccc(-c2oc3cc(O)cc(O)c3c(=O)c2O)cc1O` [Tamarixetin], the “Z repl 1” value is on record as -0.357 and the “Z Repl 2” value is -0.633. Under setting [1], the “av Z” value was -0.495. For the same molecule, the av puncta under setting [2] is on record as 14033.4. In addition, under “puncta”, the “raw data 1” value came to 22060 and the “raw data 2” value is 6006.83.
Take `O=C(OC[C@H]1O[C@@H](OC(=O)c2cc(O)c(O)c(OC(=O)c3cc(O)c(O)c(O)c3)c2)[C@H](OC(=O)c2cc(O)c(O)c(OC(=O)c3cc(O)c(O)c(O)c3)c2)[C@@H](OC(=O)c2cc(O)c(O)c(OC(=O)c3cc(O)c(O)c(O)c3)c2)[C@@H]1OC(=O)c1cc(O)c(O)c(OC(=O)c2cc(O)c(O)c(O)c2)c1)c1cc(O)c(O)c(OC(=O)c2cc(O)c(O)c(O)c2)c1` [Tannic acid]: the “Z repl 1” value is recorded as -2.109 and the “Z Repl 2” value was -1.136. Besides, under setting [1], the “av Z” value is -1.623. For the same molecule, the av puncta (average of raw data 1 and 2) came out at 829.805. Moreover, for the setting “puncta”, the “raw data 1” value is listed as 1030.3 and the “raw data 2” value was found to be 629.309.
On to `COc1cc(O)c2c(=O)cc(-c3ccccc3)oc2c1` [Tectochrysin], for which the “Z repl 1” value stood at 0.481 and the “Z Repl 2” value is listed as -0.371. Further, the “av Z” value under setting [3] is given as 0.055. The molecule further showed an av puncta (average of raw data 1 and 2) of 20458.8. Besides, where the note is “puncta”, the “raw data 1” value came to 32119.1 and the “raw data 2” value turned out to be 8798.38.
`COc1c(O)cc2occ(-c3ccc(O)cc3)c(=O)c2c1O` [Tectorigenin]: the “Z repl 1” value was -0.071 and the “Z Repl 2” value was -0.055. Further, under setting [3], the “av Z” value is on record as -0.063. The molecule further returned an av puncta (average of raw data 1 and 2) of 18839.4. Moreover, where the note is “puncta”, the “raw data 1” value was 25501.8 and the “raw data 2” value is 12177.
Take `COc1cc(/C=C/C(=O)O[C@H]2[C@H](O)[C@@H](CO)O[C@@]2(CO)O[C@H]2O[C@H](COC(=O)c3ccc(O)cc3)[C@@H](O)[C@H](O)[C@H]2O)cc(OC)c1O` [Tenuifoliside B]: the “Z repl 1” value was -0.53 and the “Z Repl 2” value was -0.01. In addition, the “av Z” value under setting [1] is recorded as -0.27. The molecule further registered an av puncta under setting [2] of 16324. In addition, for the setting “raw puncta”, the “raw data 1” value came out at 19990.7 and the “raw data 2” value is 12657.2.
Take `O=C(O)Cc1cc(I)c(Oc2cc(I)c(O)c(I)c2)c(I)c1` [Tetrac]: the “Z repl 1” value worked out at 0.158 and the “Z Repl 2” value is on record as -0.425. Further, the “av Z” value under setting [3] is reported as -0.133. The same molecule returned an av puncta (average of raw data 1 and 2) of 18236.7. Where the note is “puncta”, the “raw data 1” value is 28241.9 and the “raw data 2” value stood at 8231.59.
As for `CN(C)[C@@H]1C(O)=C(C(N)=O)C(=O)[C@@]2(O)C(O)=C3C(=O)c4c(O)cccc4[C@@](C)(O)[C@H]3C[C@@H]12.Cl` [Tetracycline (hydrochloride)], the “Z repl 1” value was determined as 0.657 and the “Z Repl 2” value is 0.47. For the same molecule, the “av Z” value under setting [4] turned out to be 0.563. This molecule registered an av puncta (average of raw data 1 and 2) of 26010.3. Also, where the note is “puncta”, the “raw data 1” value is 34234.2 and the “raw data 2” value was 17786.4.
Regarding `COc1cc(CCC(=O)CC(=O)CCc2ccc(O)c(OC)c2)ccc1O` [Tetrahydrocurcumin], the “Z repl 1” value is reported as 0.298 and the “Z Repl 2” value was -0.72. Also, the “av Z” value under setting [1] is recorded as -0.211. Under setting [2], this molecule came in with an av puncta of 17498. In addition, for the setting “raw puncta”, the “raw data 1” value is 29921.4 and the “raw data 2” value worked out at 5074.48.
As for `COc1ccc(/C=C/C(=O)C(C)(C)C(=O)/C=C/c2ccc(OC)c(OC)c2)cc1OC` [Tetramethylcurcumin], the “Z repl 1” value is listed as -1.086 and the “Z Repl 2” value is recorded as -0.943. Under setting [1], the “av Z” value is on record as -1.014. Moreover, under “average of raw data 1 and 2”, the av puncta is reported as 8003.14. Further, for the setting “puncta”, the “raw data 1” value worked out at 13309.5 and the “raw data 2” value amounted to 2696.76.
For `O=C(O[C@@H]1Cc2c(O)cc(O)cc2O[C@@H]1c1cc(O)c(O)c2c(=O)c(O)cc([C@H]3Oc4cc(O)cc(O)c4C[C@H]3O)cc12)c1cc(O)c(O)c(O)c1` [Theaflavin-3'-gallate], the “Z repl 1” value is on record as -2.15 and the “Z Repl 2” value is recorded as -1.186. Moreover, the av puncta (average of raw data 1 and 2) came to 320.554. Further, for the setting “puncta”, the “raw data 1” value is reported as 542.499 and the “raw data 2” value was 98.608.
Regarding `O=C(O[C@@H]1Cc2c(O)cc(O)cc2O[C@@H]1c1cc(O)c(=O)c2c(O)c(O)cc([C@H]3Oc4cc(O)cc(O)c4C[C@H]3O)c2c1)c1cc(O)c(O)c(O)c1` [Theaflavin-3-gallate], the “Z repl 1” value is -2.035 and the “Z Repl 2” value was -1.192. In addition, under setting [1], the “av Z” value is recorded as -1.614. The same molecule showed an av puncta (average of raw data 1 and 2) of 972.721. In addition, for the setting “puncta”, the “raw data 1” value came to 1914.49 and the “raw data 2” value was 30.952.
In the case of `O=c1c(O)cc([C@H]2Oc3cc(O)cc(O)c3C[C@H]2O)cc2c([C@H]3Oc4cc(O)cc(O)c4C[C@H]3O)cc(O)c(O)c12` [Theaflavin], the “Z repl 1” value is reported as -0.67. For the same molecule, the “av Z” value under setting [1] is on record as -0.921. The molecule also displayed an av puncta (average of raw data 1 and 2) of 9279.59. Also, under “puncta”, the “raw data 1” value is given as 18310.3 and the “raw data 2” value is reported as 248.899.
On to `O=C(O[C@@H]1[C@@H](O)[C@H](Oc2cc(O)c(C(=O)CCc3ccccc3)c(O)c2)O[C@@H]2COC(=O)c3cc(O)c(O)c(O)c3-c3c(cc(O)c(O)c3O)C(=O)O[C@@H]12)c1cc(O)c(O)c(O)c1` [Thonningianin A], for which the “Z repl 1” value was -1.226 and the “Z Repl 2” value is recorded as -0.652. The “av Z” value under setting [1] was -0.939. The same molecule registered an av puncta (average of raw data 1 and 2) of 8713.6. Moreover, for the setting “puncta”, the “raw data 1” value turned out to be 11629.9 and the “raw data 2” value was 5797.27.
In the case of `CC(=O)Oc1ccc(/C=C/c2cc(OC(C)=O)cc(OC(C)=O)c2)cc1` [Triacetylresveratrol], the “Z repl 1” value is -0.969 and the “Z Repl 2” value is given as -0.064. In addition, the “av Z” value under setting [1] is on record as -0.517. Also, the av puncta under setting [2] is 13396.5. Moreover, for the setting “puncta”, the “raw data 1” value stood at 14710.4 and the “raw data 2” value was determined as 12082.6.
Regarding `O=C(/C=C/c1ccc(O)cc1)OC[C@H]1O[C@@H](Oc2c(-c3ccc(O)cc3)oc3cc(O)cc(O)c3c2=O)[C@H](O)[C@@H](O)[C@@H]1O` [Tribuloside], the “Z repl 1” value was -0.731 and the “Z Repl 2” value is -0.145. Further, the “av Z” value under setting [1] is given as -0.438. Under setting [2], the av puncta was found to be 14393.7. Under “raw puncta”, the “raw data 1” value is reported as 17568.8 and the “raw data 2” value amounted to 11218.6.
Turning to `O=C(CCc1ccc(O)cc1)c1c(O)cc(O[C@@H]2O[C@H](CO)[C@@H](O)[C@H](O)[C@H]2O)cc1O` [Trilobatin], the “Z repl 1” value amounted to 0.764 and the “Z Repl 2” value was -0.24. The “av Z” value under setting [4] turned out to be 0.262. For the same molecule, the av puncta (average of raw data 1 and 2) turned out to be 22862. For the same molecule, where the note is “puncta”, the “raw data 1” value is on record as 35522.1 and the “raw data 2” value is given as 10201.8.
For the molecule `CC(C)c1ccc2c(c1O)CC[C@H]1C3=C(CC[C@]21C)C(=O)OC3` [Triptophenolide], the “Z repl 1” value is 0.422 and the “Z Repl 2” value was found to be 0.028. Moreover, under setting [4], the “av Z” value came out at 0.225. Besides, for the setting “average of raw data 1 and 2”, the av puncta worked out at 22243.1. Also, under “puncta”, the “raw data 1” value is on record as 31418 and the “raw data 2” value is given as 13068.1.
Turning to `C[C@@H]1O[C@@H](OC[C@H]2O[C@@H](Oc3c(-c4ccc(OCCO)c(OCCO)c4)oc4cc(OCCO)cc(O)c4c3=O)[C@H](O)[C@@H](O)[C@@H]2O)[C@H](O)[C@H](O)[C@H]1O` [Troxerutin], the “Z repl 1” value is -0.342 and the “Z Repl 2” value is -0.568. In addition, under setting [1], the “av Z” value is -0.455. The av puncta under setting [2] is 14474.7. Further, for the setting “puncta”, the “raw data 1” value stood at 22246.4 and the “raw data 2” value was found to be 6703.04.
In the case of `COc1cc(-c2oc3cc(O)cc(O)c3c(=O)c2O[C@@H]2O[C@H](CO[C@@H]3O[C@@H](C)[C@H](O)[C@@H](O)[C@H]3O)[C@@H](O)[C@H](O)[C@H]2O[C@@H]2O[C@@H](C)[C@H](O)[C@@H](O)[C@H]2O)ccc1O` [Typhaneoside], the “Z repl 1” value is given as -0.172 and the “Z Repl 2” value is -0.068. Also, the “av Z” value under setting [3] is -0.12. This molecule gave an av puncta (average of raw data 1 and 2) of 18163.3. Moreover, for the setting “puncta”, the “raw data 1” value stood at 24283.7 and the “raw data 2” value stood at 12042.9.
Regarding `NCCc1ccc(O)cc1` [Tyramine], the “AvZ” value stood at 0.07; the “Z repl 1” value is -0.244; the “Z Repl 2” value was 0.385. This molecule also yielded an av puncta (average of raw data 1 and 2) of 20147.8. Moreover, where the note is “puncta”, the “raw data 1” value was determined as 23421.7 and the “raw data 2” value is on record as 16873.8.

For the origin of these results see article PMC11784839, “Monoaminergic neurotransmitters are bimodal effectors of tau aggregation” (Science Advances, 2025).
